Measured values from ChEMBL document CHEMBL1201862, “PubChem BioAssay data set” (2004).
The source made the active and inactive calls.

Legend:
[1] = biological target: DNA dC->dU-editing enzyme APOBEC-3G (Homo sapiens, UniProt Q9HC16); experiment: Dose Response confirmation of small molecule APOBEC3G DNA Deaminase Inhibitors via a fluorescence-based single-stranded DNA deaminase assay. [Related pubchem assays (depositor defined):AID493012, AID493028]; type: functional
[2] = biological target: DNA dC->dU-editing enzyme APOBEC-3A (Homo sapiens, UniProt P31941); experiment: APOBEC3A DNA deaminase inhibitors, dose response, biochemical (AID 504722); type: functional
Sequence of DNA dC->dU-editing enzyme APOBEC-3A (P31941 whole entry): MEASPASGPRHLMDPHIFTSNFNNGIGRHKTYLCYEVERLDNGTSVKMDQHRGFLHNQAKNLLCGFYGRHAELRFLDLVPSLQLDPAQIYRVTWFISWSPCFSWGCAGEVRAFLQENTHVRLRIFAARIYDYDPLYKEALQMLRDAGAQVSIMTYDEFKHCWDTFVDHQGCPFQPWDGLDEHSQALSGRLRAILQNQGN

[3] = test system: J774.A1; experiment: Confirmation of image-based Screening Assay for Inhibitors of Phagocytosis. [Related pubchem assays (depositor defined):AID1029, AID1643]; type: functional, cell-based; settings: Mus musculus
[4] = inhibitors of SNCA 5'UTR-driven reporter translation, confirmation, H4 neuroglioma cells, luminescence (AID 1988); type: functional, cell-based
[5] = inhibitors of SNCA 5'UTR-driven translation, confirmation, luminescence, H4 neuroglioblastoma cells, dose confirmation (AID 2454); type: functional, cell-based;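 also: H4 neuroglioblastoma cells carrying an alpha-synuclein 5'UTR luciferase reporter; potency for inhibition of the luciferase signal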
[6] = inhibitors of firefly luciferase expression or activity, dose response, H4 neuroglioma cells, luminescence (AID 1990); type: functional, cell-based
[7] = Luminescence Cell-Based Dose Response HTS to Identify Inhibitors of 5'UTR Stem-Loop Driven Prion Protein mRNA Translation in H4 Neuroglioblastoma Cells. [Related pubchem assays: 1827 (Project Summary), 1813 (Primary HTS)]; type: functional
[8] = cells; type: functional, cell-based
[9] = luciferase reporter signal reduction – luminescence, H4-C neuroglioblastoma cells, dose response (AID 2458); type: functional, cell-based;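 also: H4 neuroglioblastoma cells stably carrying a luciferase reporter gene fusion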
[10] = biological target: Peroxisome proliferator-activated receptor gamma/Nuclear receptor coactivator 2 (Homo sapiens, UniProt P37231); experiment: (§1) TR-FRET dose response biochemical High Throughput Screening assay for agonists of the steroid receptor coactivator 2 (SRC-2) recruitment by the peroxisome proliferator-activated receptor gamma (PPAR gamma): non-selective agonists. [Related pubchem assays: 1297, 1032 ]; type: functional
[11] = biological target: fMet-Leu-Phe receptor (Homo sapiens, UniProt P21462); experiment: FPR ligands, dose response (AID 519); type: functional
Sequence of fMet-Leu-Phe receptor (P21462 whole entry): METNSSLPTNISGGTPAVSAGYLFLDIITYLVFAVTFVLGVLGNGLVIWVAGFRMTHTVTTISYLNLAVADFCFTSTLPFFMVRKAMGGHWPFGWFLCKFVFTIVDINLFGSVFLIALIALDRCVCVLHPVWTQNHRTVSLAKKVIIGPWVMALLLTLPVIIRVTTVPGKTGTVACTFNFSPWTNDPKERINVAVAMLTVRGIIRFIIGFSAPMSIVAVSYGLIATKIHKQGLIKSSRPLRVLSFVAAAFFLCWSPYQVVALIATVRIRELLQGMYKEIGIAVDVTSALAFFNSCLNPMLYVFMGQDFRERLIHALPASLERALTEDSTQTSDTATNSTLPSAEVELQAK

[12] = biological target: Photoreceptor-specific nuclear receptor (Homo sapiens, UniProt Q9Y5X4); type: functional;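 also: potency for compounds that break the NR2E3 corepressor complex and count as activators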
Sequence of Photoreceptor-specific nuclear receptor (Q9Y5X4 whole entry): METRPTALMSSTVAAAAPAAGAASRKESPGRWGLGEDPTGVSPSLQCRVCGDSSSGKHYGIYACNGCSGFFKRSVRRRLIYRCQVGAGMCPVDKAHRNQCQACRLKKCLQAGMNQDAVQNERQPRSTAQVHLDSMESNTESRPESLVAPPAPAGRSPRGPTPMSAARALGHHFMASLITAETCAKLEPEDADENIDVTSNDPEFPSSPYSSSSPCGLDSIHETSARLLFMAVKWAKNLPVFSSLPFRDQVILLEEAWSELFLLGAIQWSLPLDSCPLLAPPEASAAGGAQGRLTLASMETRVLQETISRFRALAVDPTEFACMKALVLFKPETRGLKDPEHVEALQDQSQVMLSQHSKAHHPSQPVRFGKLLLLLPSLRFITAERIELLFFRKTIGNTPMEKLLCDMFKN

[13] = biological target: Peroxisome proliferator-activated receptor gamma/Nuclear receptor coactivator 3 (Homo sapiens, UniProt P37231); experiment: as §1, with “3 (SRC-3)” for “2 (SRC-2)”, “1301 (Confirmation screen.), 1048 (Primary screen.)]” for “1297, 1032 ]”; type: functional
Sequence of Peroxisome proliferator-activated receptor gamma/Nuclear receptor coactivator 3 (P37231 whole entry): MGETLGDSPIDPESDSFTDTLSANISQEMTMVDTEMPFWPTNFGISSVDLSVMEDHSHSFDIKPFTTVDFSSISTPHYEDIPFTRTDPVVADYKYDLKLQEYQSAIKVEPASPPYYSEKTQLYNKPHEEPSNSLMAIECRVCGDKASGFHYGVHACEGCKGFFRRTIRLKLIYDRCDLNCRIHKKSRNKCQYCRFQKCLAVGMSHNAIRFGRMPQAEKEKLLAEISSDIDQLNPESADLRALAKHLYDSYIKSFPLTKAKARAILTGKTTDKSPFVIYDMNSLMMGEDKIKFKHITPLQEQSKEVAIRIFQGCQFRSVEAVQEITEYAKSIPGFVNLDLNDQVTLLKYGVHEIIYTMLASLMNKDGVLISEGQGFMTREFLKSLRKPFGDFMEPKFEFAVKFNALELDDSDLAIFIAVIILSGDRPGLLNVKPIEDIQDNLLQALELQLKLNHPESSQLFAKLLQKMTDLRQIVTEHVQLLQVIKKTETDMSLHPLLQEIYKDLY
Sequence of Peroxisome proliferator-activated receptor gamma/Nuclear receptor coactivator 3 (Q9Y6Q9 whole entry, further chain): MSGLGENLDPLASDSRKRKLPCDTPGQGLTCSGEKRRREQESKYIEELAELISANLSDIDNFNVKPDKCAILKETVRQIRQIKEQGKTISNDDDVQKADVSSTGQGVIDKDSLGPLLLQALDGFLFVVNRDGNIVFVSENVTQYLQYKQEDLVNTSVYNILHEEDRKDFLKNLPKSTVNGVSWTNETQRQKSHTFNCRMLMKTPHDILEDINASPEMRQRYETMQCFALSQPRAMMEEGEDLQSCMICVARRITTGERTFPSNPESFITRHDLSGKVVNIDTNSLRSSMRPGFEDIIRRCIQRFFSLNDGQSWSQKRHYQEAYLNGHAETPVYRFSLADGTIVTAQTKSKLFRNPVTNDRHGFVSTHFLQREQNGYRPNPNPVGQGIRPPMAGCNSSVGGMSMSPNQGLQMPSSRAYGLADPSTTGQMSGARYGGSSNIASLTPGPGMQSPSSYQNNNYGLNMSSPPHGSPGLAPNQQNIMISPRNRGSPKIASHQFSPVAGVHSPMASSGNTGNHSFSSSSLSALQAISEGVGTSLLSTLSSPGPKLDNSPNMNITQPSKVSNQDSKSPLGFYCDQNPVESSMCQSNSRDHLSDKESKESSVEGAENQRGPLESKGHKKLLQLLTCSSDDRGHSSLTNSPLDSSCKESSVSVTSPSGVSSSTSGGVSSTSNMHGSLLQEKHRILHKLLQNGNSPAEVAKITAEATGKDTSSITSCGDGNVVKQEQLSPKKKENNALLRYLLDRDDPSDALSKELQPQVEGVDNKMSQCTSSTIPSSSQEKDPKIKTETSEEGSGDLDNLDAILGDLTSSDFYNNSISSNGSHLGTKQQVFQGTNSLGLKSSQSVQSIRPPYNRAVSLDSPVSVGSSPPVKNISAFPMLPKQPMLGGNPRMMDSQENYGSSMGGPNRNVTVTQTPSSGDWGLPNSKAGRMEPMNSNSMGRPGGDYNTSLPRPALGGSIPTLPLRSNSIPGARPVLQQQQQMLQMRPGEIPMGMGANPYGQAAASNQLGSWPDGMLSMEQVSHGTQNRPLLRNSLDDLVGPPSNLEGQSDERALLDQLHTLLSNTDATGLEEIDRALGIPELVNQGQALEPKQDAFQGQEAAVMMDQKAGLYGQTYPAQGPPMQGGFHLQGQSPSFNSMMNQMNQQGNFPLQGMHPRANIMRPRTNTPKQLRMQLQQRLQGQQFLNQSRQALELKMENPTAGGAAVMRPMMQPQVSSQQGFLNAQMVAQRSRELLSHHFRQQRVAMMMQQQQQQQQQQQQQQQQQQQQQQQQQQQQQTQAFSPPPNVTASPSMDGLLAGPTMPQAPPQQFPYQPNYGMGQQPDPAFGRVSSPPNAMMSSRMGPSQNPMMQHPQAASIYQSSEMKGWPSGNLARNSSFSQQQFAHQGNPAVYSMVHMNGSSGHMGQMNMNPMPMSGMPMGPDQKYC

[14] = biological target: Peroxisome proliferator-activated receptor gamma/Nuclear receptor coactivator 1 (Homo sapiens, UniProt P37231); experiment: as §1, with “1 (SRC-1)” for “2 (SRC-2)”, “assays (depositor defined):AID1300, AID1808, AID504735, AID631]” for “assays: 1297, 1032 ]”; type: protein assay
[15] = biological target: Peroxisome proliferator-activated receptor gamma/Nuclear receptor corepressor 2 (Homo sapiens, UniProt P37231+Q9Y618); type: functional
[16] = biological target: Intestinal-type alkaline phosphatase (Homo sapiens, UniProt P09923); experiment: Dose Response confirmation of uHTS hits from a small molecule inhibitors of human intestinal alkaline phosphatase via a luminescent assay. [Related pubchem assays (depositor defined):AID2544, AID2574]; type: functional
Sequence of Intestinal-type alkaline phosphatase (P09923 whole entry): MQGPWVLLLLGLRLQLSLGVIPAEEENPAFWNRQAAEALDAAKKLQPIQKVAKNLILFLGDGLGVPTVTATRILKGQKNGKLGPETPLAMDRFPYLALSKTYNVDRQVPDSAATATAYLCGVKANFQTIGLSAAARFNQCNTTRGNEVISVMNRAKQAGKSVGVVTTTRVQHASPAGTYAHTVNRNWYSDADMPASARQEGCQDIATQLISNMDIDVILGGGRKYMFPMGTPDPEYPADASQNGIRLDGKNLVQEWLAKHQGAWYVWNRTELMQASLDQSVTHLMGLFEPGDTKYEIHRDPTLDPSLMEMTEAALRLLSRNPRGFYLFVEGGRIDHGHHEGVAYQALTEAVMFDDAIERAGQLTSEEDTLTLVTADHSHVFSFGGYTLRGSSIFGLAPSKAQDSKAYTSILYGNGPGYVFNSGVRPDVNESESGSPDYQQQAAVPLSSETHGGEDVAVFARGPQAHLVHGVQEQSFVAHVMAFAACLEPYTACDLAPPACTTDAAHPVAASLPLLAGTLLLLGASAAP

[17] = test system: HeLa; experiment: HeLa cell cytotoxicity, dose response, cytotoxicity control, 24 h, cherry-picked samples (AID 504726); type: functional, cell-based; settings: Homo sapiens;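 also: potency for cytotoxicity as loss of luminescence signal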

Sequence of DNA dC->dU-editing enzyme APOBEC-3G (Q9HC16 whole entry): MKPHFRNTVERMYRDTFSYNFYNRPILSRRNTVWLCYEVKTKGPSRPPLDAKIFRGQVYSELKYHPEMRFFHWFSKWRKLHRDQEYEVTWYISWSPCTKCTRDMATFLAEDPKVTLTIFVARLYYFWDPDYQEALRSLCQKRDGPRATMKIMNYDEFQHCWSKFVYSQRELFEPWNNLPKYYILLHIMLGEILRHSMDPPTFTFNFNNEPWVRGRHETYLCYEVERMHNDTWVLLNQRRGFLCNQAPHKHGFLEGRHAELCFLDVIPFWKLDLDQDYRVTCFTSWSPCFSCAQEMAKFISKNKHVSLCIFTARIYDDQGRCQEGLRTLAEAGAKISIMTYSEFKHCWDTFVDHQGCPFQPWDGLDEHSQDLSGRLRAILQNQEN

Structure (SMILES): CCc1cc(-c2n[nH]c(=S)n2CC)cs1
- IC50 [1]: 5.02 µM (active)
- IC50 [2]: > 100 µM (inactive)

Structure (SMILES): COc1ccc(NS(=O)(=O)c2cc(C)ccc2NC(=O)c2cc(C)oc2C)cc1
- IC50 [3]: 0.0632 µM (active)
- EC50 [4]: < 0.1 µM (active)
- EC50 [5]: 1.11 µM (active)
- EC50 [6]: 7.02 µM (active)
- EC50 [7]: 0.173 µM (active)
- EC50 [8]: 1.07 µM (active)
- EC50 [9]: 0.651 µM (active)

Structure (SMILES): COc1cccc2cc(C(=O)C3=C(O)C(=O)N(Cc4ccco4)C3c3cccnc3)oc12 (configuration not stated)
- EC50 [10]: > 79.4 µM (not active)
- Ki [11]: > 66.7 µM (inactive)
- IC50 [12]: > 39.8 µM (not active)
- EC50 [13]: > 79.4 µM (not active)
- EC50 [14]: > 79.4 µM (inactive)
- IC50 [15]: 2.79 µM (active)

Structure (SMILES): Cc1ccc(S(=O)(=O)N(CC(=O)Nc2ccc(C)cc2C)C(=O)N2CCN(C)CC2)cc1
- IC50 [16]: > 100 µM (inactive)

Structure (SMILES): CCN(CCCNC(=O)Cn1cc2c(n1)CCCC2)c1cccc(C)c1
- AC50 [17]: > 350 µM (inactive)
